Measured values reported in patent US5840684A, “Glycopeptide antibiotic derivatives” (Eli Lilly and Company, priority 1995, dated 1998).
≈ marks a conversion by molar mass, not a printed value.

What was measured:
[1] = tested on: Staphylococcus aureus S13E; assay type: cell-based
Experimental: (§1) The MIC's were determined using a standard broth micro-dilution assay.

[2] = tested on: Staphylococcus aureus SA1199B; assay type: cell-based
Experimental: as §1

[3] = tested on: vancomycin-susceptible enterococci; assay: broth micro-dilution, mean geometric MIC; assay type: cell-based, Enterococcus faecium and Enterococcus faecalis; conditions: enterococci, 24-hour incubation
[4] = tested on: Staphylococcus epidermidis 270; assay: broth micro-dilution MIC; assay type: cell-based
Experimental: (§2) The formula I compounds have in vitro and in vivo activity against Gram-positive pathogenic bacteria. The MIC's were determined using a standard broth micro-dilution assay.

[5] = tested on: Enterococcus gallinarum 245; assay: broth micro-dilution MIC; assay type: cell-based; conditions: Enterococcus gallinarum 245
Experimental: as §2

[6] = tested on: Staphylococcus haemolyticus 105; assay: broth micro-dilution MIC; assay type: cell-based
Experimental: as §2

[7] = tested on: Escherichia coli EC14; assay: broth micro-dilution MIC; assay type: cell-based
Experimental: as §2

[8] = tested on: Staphylococcus haemolyticus 415; assay: broth micro-dilution MIC; assay type: cell-based
Experimental: as §2

[9] = tested on: Entercoccus faecium 2041; assay: broth micro-dilution MIC; assay type: cell-based; conditions: Entercoccus faecium 2041
Experimental: as §2

[10] = tested on: Entercoccus faecium 180; assay: broth micro-dilution MIC; assay type: cell-based; conditions: Entercoccus faecium 180
Experimental: as §2

[11] = tested on: Streptococcus pneumoniae P1; assay: broth micro-dilution MIC; assay type: cell-based
Experimental: as §2

[12] = tested on: Entercoccus faecium 276; assay: broth micro-dilution MIC; assay type: cell-based
Experimental: as §1

[13] = tested on: Staphylococcus aureus 489; assay: broth micro-dilution MIC; assay type: cell-based
Experimental: as §1

[14] = tested on: Staphylococcus aureus 491; assay: broth micro-dilution MIC; assay type: cell-based
Experimental: as §1

[15] = tested on: Staphylococcus aureus SA1199; assay: broth micro-dilution MIC; assay type: cell-based
Experimental: as §1

[16] = tested on: Staphylococcus aureus 446; assay: broth micro-dilution MIC; assay type: cell-based
Experimental: as §1

[17] = tested on: Staphylococcus aureus 447; assay: broth micro-dilution MIC; assay type: cell-based
Experimental: as §1

[18] = tested on: Staphylococcus aureus SA1199A; assay: broth micro-dilution MIC; assay type: cell-based
Experimental: as §1

[19] = tested on: Staphylococcus aureus X400; assay: broth micro-dilution MIC; assay type: cell-based
Experimental: as §1

[20] = tested on: Streptococcus pyogenes C203; assay: broth micro-dilution MIC; assay type: cell-based
Experimental: as §1

[21] = tested on: Staphylococcus aureus X778; assay: broth micro-dilution MIC; assay type: cell-based
Experimental: as §1

[22] = tested on: Entercoccus faecium 180-1; assay: broth micro-dilution MIC; assay type: cell-based
Experimental: as §1

[23] = tested on: vancomycin-resistant enterococci; assay: broth micro-dilution, mean geometric MIC; assay type: cell-based, Enterococcus faecium and Enterococcus faecalis; conditions: enterococci, 24-hour incubation
[24] = tested on: Haemophilus influenzae RD; assay: broth micro-dilution MIC; assay type: cell-based; conditions: Haemophilus influenzae RD
Experimental: as §2

Structure (SMILES) | MIC [2] [µg/mL] | mean geometric MIC, Vancomycin Sensitive Strains [3] [µg/mL] | MIC [4] [µg/mL] | MIC [5] [µg/mL] | MIC [6] [µg/mL] | MIC [7] [µg/mL] | MIC [8] [µg/mL] | MIC [9] [µg/mL] | MIC [10] [µg/mL] | MIC [11] [µg/mL] | MIC [12] [µg/mL] | MIC [13] [µg/mL] | MIC [14] [µg/mL] | MIC [15] [µg/mL] | MIC [16] [µg/mL] | MIC [17] [µg/mL] | MIC [19] [µg/mL] | MIC [21] [µg/mL] | MIC [22] [µg/mL] | mean geometric MIC, Vancomycin Resistant Strains [23] [µg/mL] | further results
CNC(CC(C)C)C(=O)NC1C(=O)NC(CC(N)=O)C(=O)NC2C(=O)NC3C(=O)NC(C(=O)NC(C(=O)O)c4cc(O)cc(O)c4-c4cc3ccc4O)C(OC3CC(C)(N)C(O)C(C)O3)c3ccc(c(Cl)c3)Oc3cc2cc(c3OC2OC(CO)C(O)C(O)C2OC2CC(C)(NCC3CCCCC3)C(O)C(C)O2)Oc2ccc(cc2Cl)C1O (stereo not drawn) [Compound 161] | 0.25 (≈ 0.148 µM) | 0.44 | 1 (≈ 0.592 µM) | 8 (≈ 4.74 µM) | 4 (≈ 2.37 µM) | > 64 | 8 (≈ 4.74 µM) | ≤ 0.06 | 2 (≈ 1.18 µM) | ≤ 0.06 | 0.125 (≈ 0.074 µM) | ≤ 0.06 | 0.5 (≈ 0.296 µM) | 0.25 (≈ 0.148 µM) | 0.5 (≈ 0.296 µM) | 1 (≈ 0.592 µM) | 0.5 (≈ 0.296 µM) | 0.5 (≈ 0.296 µM) | ≤ 0.06 | 23 | MIC [1]: 0.125 µg/mL (≈ 0.074 µM); MIC [18]: ≤ 0.06 µg/mL; MIC [20]: ≤ 0.06 µg/mL
CNC(CC(C)C)C(=O)NC1C(=O)NC(CC(N)=O)C(=O)NC2C(=O)NC3C(=O)NC(C(=O)NC(C(=O)O)c4cc(O)cc(O)c4-c4cc3ccc4O)C(OC3CC(C)(NCc4ccc5c(c4)Cc4ccccc4-5)C(O)C(C)O3)c3ccc(c(Cl)c3)Oc3cc2cc(c3OC2OC(CO)C(O)C(O)C2OC2CC(C)(NCc3ccc4c(c3)Cc3ccccc3-4)C(O)C(C)O2)Oc2ccc(cc2Cl)C1O (stereo not drawn) [Compound 279] | ≤ 0.06 | 0.11 | 1 (≈ 0.513 µM) | 2 (≈ 1.03 µM) | 4 (≈ 2.05 µM) | > 64 | 2 (≈ 1.03 µM) | ≤ 0.06 | ≤ 0.06 | ≤ 0.06 | 0.125 (≈ 0.0641 µM) | – | 0.25 (≈ 0.128 µM) | 0.5 (≈ 0.257 µM) | 0.5 (≈ 0.257 µM) | 1 (≈ 0.513 µM) | 0.25 (≈ 0.128 µM) | 0.25 (≈ 0.128 µM) | ≤ 0.06 | 2.4 | MIC [1]: 0.25 µg/mL (≈ 0.128 µM); MIC [24]: > 64 µg/mL; MIC [18]: ≤ 0.06 µg/mL; MIC [20]: ≤ 0.06 µg/mL
CNC(CC(C)C)C(=O)NC1C(=O)NC(CC(N)=O)C(=O)NC2C(=O)NC3C(=O)NC(C(=O)NC(C(=O)O)c4cc(O)cc(O)c4-c4cc3ccc4O)C(OC3CC(C)(N)C(O)C(C)O3)c3ccc(c(Cl)c3)Oc3cc2cc(c3OC2OC(CO)C(O)C(O)C2OC2CC(C)(NCc3ccc([N+](=O)[O-])cc3)C(O)C(C)O2)Oc2ccc(cc2Cl)C1O (stereo not drawn) [Compound 78] | ≤ 0.06 | 0.76 | 0.5 (≈ 0.289 µM) | 0.125 (≈ 0.0724 µM) | 2 (≈ 1.16 µM) | > 64 | 16 (≈ 9.26 µM) | ≤ 0.06 | 1 (≈ 0.579 µM) | ≤ 0.06 | 0.125 (≈ 0.0724 µM) | ≤ 0.06 | 0.25 (≈ 0.145 µM) | 0.125 (≈ 0.0724 µM) | 2 (≈ 1.16 µM) | ≤ 0.06 | ≤ 0.06 | ≤ 0.06 | ≤ 0.06 | 16 | MIC [18]: ≤ 0.06 µg/mL; MIC [20]: ≤ 0.06 µg/mL
CNC(CC(C)C)C(=O)NC1C(=O)NC(CC(N)=O)C(=O)NC2C(=O)NC3C(=O)NC(C(=O)NC(C(=O)O)c4cc(O)cc(O)c4-c4cc3ccc4O)C(OC3CC(C)(N)C(O)C(C)O3)c3ccc(c(Cl)c3)Oc3cc2cc(c3OC2OC(CO)C(O)C(O)C2OC2CC(C)(NCc3c4ccccc4c(Cl)c4ccccc34)C(O)C(C)O2)Oc2ccc(cc2Cl)C1O (stereo not drawn) [Compound 18] | 2 (≈ 1.1 µM) | 0.38 | 8 (≈ 4.4 µM) | 1 (≈ 0.55 µM) | 16 (≈ 8.81 µM) | > 64 | 8 (≈ 4.4 µM) | 0.25 (≈ 0.138 µM) | 2 (≈ 1.1 µM) | ≤ 0.06 | 1 (≈ 0.55 µM) | 1 (≈ 0.55 µM) | 2 (≈ 1.1 µM) | – | 2 (≈ 1.1 µM) | 8 (≈ 4.4 µM) | 1 (≈ 0.55 µM) | 0.5 (≈ 0.275 µM) | ≤ 0.06 | 6.7 | MIC [1]: 1 µg/mL (≈ 0.55 µM); MIC [24]: 16 µg/mL (≈ 8.81 µM); MIC [18]: ≤ 0.06 µg/mL; MIC [20]: ≤ 0.06 µg/mL
CNC(CC(C)C)C(=O)NC1C(=O)NC(CC(N)=O)C(=O)NC2C(=O)NC3C(=O)NC(C(=O)NC(C(=O)O)c4cc(O)cc(O)c4-c4cc3ccc4O)C(OC3CC(C)(N)C(O)C(C)O3)c3ccc(c(Cl)c3)Oc3cc2cc(c3OC2OC(CO)C(O)C(O)C2OC2CC(C)(NCc3c(C)c(C)c(C)c(C)c3C)C(O)C(C)O2)Oc2ccc(cc2Cl)C1O (stereo not drawn) [Compound 73] | ≤ 0.06 | – | – | 2 (≈ 1.14 µM) | 0.5 (≈ 0.285 µM) | > 64 | 2 (≈ 1.14 µM) | – | 0.5 (≈ 0.285 µM) | ≤ 0.06 | – | – | – | 0.5 (≈ 0.285 µM) | – | – | 0.5 (≈ 0.285 µM) | 1 (≈ 0.571 µM) | ≤ 0.06 | 11 | MIC [20]: ≤ 0.06 µg/mL
CNC(CC(C)C)C(=O)NC1C(=O)NC(CC(N)=O)C(=O)NC2C(=O)NC3C(=O)NC(C(=O)NC(C(=O)O)c4cc(O)cc(O)c4-c4cc3ccc4O)C(OC3CC(C)(N)C(O)C(C)O3)c3ccc(c(Cl)c3)Oc3cc2cc(c3OC2OC(CO)C(O)C(O)C2OC2CC(C)(NCc3ccccn3)C(O)C(C)O2)Oc2ccc(cc2Cl)C1O (stereo not drawn) [Compound 31] | – | 1.2 | 1 (≈ 0.594 µM) | – | 4 (≈ 2.38 µM) | > 64 | – | – | 4 (≈ 2.38 µM) | – | – | ≤ 0.06 | 0.5 (≈ 0.297 µM) | – | 0.5 (≈ 0.297 µM) | 0.5 (≈ 0.297 µM) | – | – | ≤ 0.06 | 9.5 | MIC [24]: > 64 µg/mL
CNC(CC(C)C)C(=O)NC1C(=O)NC(CC(N)=O)C(=O)NC2C(=O)NC3C(=O)NC(C(=O)NC(C(=O)O)c4cc(O)cc(O)c4-c4cc3ccc4O)C(OC3CC(C)(N)C(O)C(C)O3)c3ccc(c(Cl)c3)Oc3cc2cc(c3OC2OC(CO)C(O)C(O)C2OC2CC(C)(NCc3ccc4ccccc4n3)C(O)C(C)O2)Oc2ccc(cc2Cl)C1O (stereo not drawn) [Compound 30] | 0.125 (≈ 0.0721 µM) | 0.071 | 2 (≈ 1.15 µM) | ≤ 0.06 | 4 (≈ 2.31 µM) | > 64 | – | ≤ 0.06 | 2 (≈ 1.15 µM) | – | 0.25 (≈ 0.144 µM) | 0.125 (≈ 0.0721 µM) | 0.5 (≈ 0.288 µM) | 0.5 (≈ 0.288 µM) | 1 (≈ 0.577 µM) | 2 (≈ 1.15 µM) | ≤ 0.06 | ≤ 0.06 | ≤ 0.06 | 4.7 | MIC [1]: 0.125 µg/mL (≈ 0.0721 µM); MIC [24]: > 64 µg/mL
CNC(CC(C)C)C(=O)NC1C(=O)NC(CC(N)=O)C(=O)NC2C(=O)NC3C(=O)NC(C(=O)NC(C(=O)O)c4cc(O)cc(O)c4-c4cc3ccc4O)C(OC3CC(C)(N)C(O)C(C)O3)c3ccc(c(Cl)c3)Oc3cc2cc(c3OC2OC(CO)C(O)C(O)C2OC2CC(C)(NCc3ccc(OCCCCCCc4ccccc4)cc3)C(O)C(C)O2)Oc2ccc(cc2Cl)C1O (stereo not drawn) [Compound 219] | 8 (≈ 4.3 µM) | 0.044 | 4 (≈ 2.15 µM) | 2 (≈ 1.08 µM) | 2 (≈ 1.08 µM) | – | 2 (≈ 1.08 µM) | 2 (≈ 1.08 µM) | 1 (≈ 0.538 µM) | ≤ 0.06 | 2 (≈ 1.08 µM) | 8 (≈ 4.3 µM) | 4 (≈ 2.15 µM) | 4 (≈ 2.15 µM) | 8 (≈ 4.3 µM) | 8 (≈ 4.3 µM) | 8 (≈ 4.3 µM) | 8 (≈ 4.3 µM) | 1 (≈ 0.538 µM) | 0.71 | MIC [1]: 8 µg/mL (≈ 4.3 µM); MIC [24]: 32 µg/mL (≈ 17.2 µM); MIC [18]: 1 µg/mL (≈ 0.538 µM); MIC [20]: ≤ 0.06 µg/mL
